Results as given in ChEMBL document CHEMBL5154678, “Lysine Stapling Screening Provides Stable and Low Toxic Cationic Antimicrobial Peptides Combating Multidrug-Resistant Bacteria In Vitro and In Vivo” (J Med Chem, 2022).
≈ marks a conversion by molar mass, not a printed value. Calls of active or inactive are those of the source. The rule behind the calls is not given here. Starred links: 1 amine or outer side, 2 acyl side, 3 side chain; linkers in the order of their positions; H or OH if unused. Positions of bridges follow the written chain, without caps; N, C: chain ends. Non-standard residues stand in square brackets, D forms with d. Residues, ends and D or L forms follow the SMILES beside them. X1 = O=C([C@H](CCCCNCC=[*:3])N[*:1])[*:2]

Key:
Staphylococcus aureus [1] = assay: Antibacterial activity against methicillin-resistant Staphylococcus aureus BNCC 186335 infected in mouse C57BL/6 assessed as reduction in intracellular bacterial burden in kidney at 2 mg/kg ,ip incubated for 24 hrs; type: functional, organism-based
Staphylococcus aureus [2] = assay: Antibacterial activity against methicillin-resistant Staphylococcus aureus BNCC 186335 infected in mouse C57BL/6 assessed as reduction in intracellular bacterial burden in lung at 2 mg/kg ,ip incubated for 24 hrs; type: functional, organism-based
Staphylococcus aureus [3] = assay: Antibacterial activity against methicillin-resistant Staphylococcus aureus BNCC 186335 infected in mouse C57BL/6 assessed as reduction in intracellular bacterial burden in spleen at 2 mg/kg ,ip incubated for 24 hrs; type: functional, organism-based
Cell membrane [4] = assay: Induction of membrane damage in multidrug-resistant Acinetobacter baumannii assessed as concentration of stained cells incubated for 2 hrs by propidium iodide staining based flow cytometer assay; type: subcellular; details: dose 16.0 µg/ml
Cell membrane [5] = assay: Induction of membrane damage in methicillin-resistant Staphylococcus aureus BNCC 186335 assessed as concentration of stained cells incubated for 2 hrs by propidium iodide staining based flow cytometer assay; type: subcellular
Staphylococcus aureus [6] = assay: Antibacterial activity against methicillin-resistant Staphylococcus aureus assessed as inhibition of bacterial growth incubated for 16 hrs by broth microdilution method; type: functional
Staphylococcus aureus [7] = assay: Antibacterial activity against Staphylococcus aureus BNCC 186335 assessed as inhibition of bacterial growth incubated for 16 hrs by broth microdilution method; type: functional
Listeria monocytogenes = assay: Antibacterial activity against Listeria monocytogenes assessed as inhibition of bacterial growth incubated for 16 hrs by broth microdilution method; type: functional
Staphylococcus aureus [8] = assay: Antibacterial activity against methicillin-resistant Staphylococcus aureus BNCC 186335 infected in mouse C57BL/6 assessed as reduction in intracellular bacterial burden in liver at 2 mg/kg ,ip incubated for 24 hrs; type: functional, organism-based
Pseudomonas aeruginosa [9] = assay: Antibacterial activity against Pseudomonas aeruginosa BNCC 125486 assessed as inhibition of bacterial growth incubated for 16 hrs by broth microdilution method; type: functional
Escherichia coli [10] = assay: Antibacterial activity against Escherichia coli BNCC 133264 assessed as inhibition of bacterial growth incubated for 16 hrs by broth microdilution method; type: functional
Escherichia coli [11] = assay: Antibacterial activity against cephalosporin-resistant Escherichia coli BNCC 133264 assessed as inhibition of bacterial growth incubated for 16 hrs by broth microdilution method; type: functional
Erythrocyte = assay: Hemolytic activity against human RBC assessed as concentration required to cause 10% hemolysis; type: toxicity, cell-based
[12] = Stability in human plasma assessed as half life measured after 24 hrs by HPLC analysis; type: ADME, cell-free
Enterococcus faecium = assay: Antibacterial activity against multidrug-resistant Enterococcus faecium assessed as inhibition of bacterial growth incubated for 16 hrs by broth microdilution method; type: functional
Staphylococcus aureus [13] = assay: Antibacterial activity against multidrug-resistant Staphylococcus aureus BNCC 186335 assessed as inhibition of bacterial growth incubated for 16 hrs by broth microdilution method; type: functional
Klebsiella pneumoniae = assay: Antibacterial activity against multidrug-resistant Klebsiella pneumoniae assessed as inhibition of bacterial growth incubated for 16 hrs by broth microdilution method; type: functional
Acinetobacter baumannii [14] = assay: Antibacterial activity against multidrug-resistant Acinetobacter baumannii assessed as inhibition of bacterial growth incubated for 16 hrs by broth microdilution method; type: functional
Pseudomonas aeruginosa [15] = assay: Antibacterial activity against multidrug-resistant Pseudomonas aeruginosa BNCC 125486 assessed as inhibition of bacterial growth incubated for 16 hrs by broth microdilution method; type: functional
Escherichia coli [16] = assay: Antibacterial activity against multidrug-resistant Escherichia coli BNCC 133264 assessed as inhibition of bacterial growth incubated for 16 hrs by broth microdilution method; type: functional
HEK-293T [17] = assay: Cytotoxicity against human HEK293T cells assessed as cell survival rate at 256 ug/ml incubated for 24 hrs by MTT assay; type: toxicity, cell-based; details: dose 256 µg/ml
Staphylococcus aureus [18] = assay: Antibacterial activity against methicillin-resistant Staphylococcus aureus BNCC 186335 assessed as inhibition of bacterial growth incubated for 4 hrs in presence of 25% plasma by broth microdilution method; type: functional
Cell membrane [19] = assay: Induction of membrane disruption in multidrug-resistant Acinetobacter baumannii assessed as loss of cell integrity at 16 ug/ml measured after 2 hrs by SEM analysis; type: subcellular; details: dose 16.0 µg/ml
Cell membrane [20] = assay: Induction of membrane disruption in methicillin-resistant Staphylococcus aureus BNCC 186335 assessed as loss of cell integrity at 16 ug/ml measured after 2 hrs by SEM analysis; type: subcellular; details: dose 16.0 µg/ml
HEK-293T [21] = assay: Cytotoxicity against human HEK293T cells assessed as cell survival rate at 128 ug/ml incubated for 24 hrs by MTT assay relative to control; type: toxicity, cell-based; details: dose 128 µg/ml
Acinetobacter baumannii [22] = assay: Bactericidal activity against multidrug-resistant Acinetobacter baumannii assessed as log reduction in colony forming unit at 32 ug/ml measured after 20 mins by time kill assay; type: functional, organism-based; details: dose 32.0 µg/ml
Staphylococcus aureus [23] = assay: Bactericidal activity against methicillin-resistant Staphylococcus aureus BNCC 186335 assessed as log reduction in colony forming unit at 32 ug/ml measured after 30 mins by time kill assay; type: functional, organism-based; details: dose 32.0 µg/ml
Cell membrane [24] = assay: Induction of membrane damage in methicillin-resistant Staphylococcus aureus BNCC 186335 assessed as disruption of membrane integrity at 16 ug/ml incubated for 2 hrs by propidium iodide staining based assay; details: dose 16.0 µg/ml
Staphylococcus aureus [25] = assay: Drug resistance development in Staphylococcus aureus assessed as change in MIC at sub-MIC concentration measured after 60 passages; type: functional, organism-based
HEK-293T [26] = assay: Cytotoxicity against human HEK293T cells assessed as cell survival rate at 64 Ug/ml incubated for 24 hrs by MTT assay relative to control; type: toxicity, cell-based; details: dose 64 µg/ml

Row | Compound | MIC (Staphylococcus aureus [6]) | MIC (Staphylococcus aureus [7]) | MIC (Listeria monocytogenes) | MIC (Pseudomonas aeruginosa [9]) | MIC (Escherichia coli [10]) | MIC (Escherichia coli [11]) | MHC (Erythrocyte) | half-life [12] | MIC (Enterococcus faecium) | MIC (Staphylococcus aureus [13]) | MIC (Klebsiella pneumoniae) | MIC (Acinetobacter baumannii [14]) | MIC (Pseudomonas aeruginosa [15]) | MIC (Escherichia coli [16]) | Activity (HEK-293T [17]) | MIC (Staphylococcus aureus [18]) | Activity (HEK-293T [21]) | further results
1 | CC(C)[C@H](N)C(=O)N[C@@H](CCCCN)C(=O)N[C@@H](CCCNC(=N)N)C(=O)N[C@@H](Cc1ccccc1)C(=O)N[C@@H](CCCCN)C(=O)N[C@@H](CCCCN)C(=O)N[C@@H](Cc1ccccc1)C(=O)N[C@@H](Cc1ccccc1)C(=O)N[C@@H](CCCNC(=N)N)C(=O)N[C@@H](CCCCN)C(=O)N[C@@H](Cc1ccccc1)C(=O)N[C@@H](CCCCN)C(=O)N[C@@H](CCCCN)C(=O)N[C@@H](Cc1ccccc1)C(=O)N[C@H](C(N)=O)C(C)C (H-VKRFKKFFRKFKKFV-NH2) | 8 µg/mL (≈ 3.94 µM) | 4 µg/mL (≈ 1.97 µM) | 16 µg/mL (≈ 7.87 µM) | 8 µg/mL (≈ 3.94 µM) | 2 µg/mL (≈ 0.984 µM) | 16 µg/mL (≈ 7.87 µM) | > 128 µg/mL | 2.5 h | 8 µg/mL (≈ 3.94 µM) | 32 µg/mL (≈ 15.7 µM) | 128 µg/mL (≈ 63 µM) | 4 µg/mL (≈ 1.97 µM) | 4 µg/mL (≈ 1.97 µM) | 8 µg/mL (≈ 3.94 µM) | Toxic |  |  | Activity (Staphylococcus aureus [1]): Active; Activity (Staphylococcus aureus [2]): Active; Activity (Staphylococcus aureus [3]): Active; Activity (Cell membrane [4]; DDE = dose-dependent effect): Dde; Activity (Cell membrane [5]): 11%; Activity (Staphylococcus aureus [8]): Active
2 | CC(C)[C@H](N)C(=O)N[C@H]1CCCCNCC#CCNCCCC[C@@H](C(=O)N[C@@H](Cc2ccccc2)C(=O)N[C@@H](Cc2ccccc2)C(=O)N[C@@H](CCCNC(=N)N)C(=O)N[C@@H](CCCCN)C(=O)N[C@@H](Cc2ccccc2)C(=O)N[C@@H](CCCCN)C(=O)N[C@@H](CCCCN)C(=O)N[C@@H](Cc2ccccc2)C(=O)N[C@H](C(N)=O)C(C)C)NC(=O)[C@H](CCCCN)NC(=O)[C@H](Cc2ccccc2)NC(=O)[C@H](CCCNC(=N)N)NC1=O | 8 µg/mL (≈ 3.84 µM) | 4 µg/mL (≈ 1.92 µM) | 8 µg/mL (≈ 3.84 µM) | 16 µg/mL (≈ 7.68 µM) | 4 µg/mL (≈ 1.92 µM) | 16 µg/mL (≈ 7.68 µM) | > 128 µg/mL |  |  |  |  |  |  |  | Toxic | 128 µg/mL |  | 
3 | CC(C)[C@H](N)C(=O)N[C@@H](CCCCN)C(=O)N[C@@H](CCCNC(=N)N)C(=O)N[C@@H](Cc1ccccc1)C(=O)N[C@@H](CCCCN)C(=O)N[C@H]1CCCCNCc2ccccc2CNCCCC[C@@H](C(=O)N[C@@H](Cc2ccccc2)C(=O)N[C@@H](CCCCN)C(=O)N[C@@H](CCCCN)C(=O)N[C@@H](Cc2ccccc2)C(=O)N[C@H](C(N)=O)C(C)C)NC(=O)[C@H](CCCNC(=N)N)NC(=O)[C@H](Cc2ccccc2)NC(=O)[C@H](Cc2ccccc2)NC1=O | 2 µg/mL (≈ 0.937 µM) | 2 µg/mL (≈ 0.937 µM) | 4 µg/mL (≈ 1.87 µM) | 8 µg/mL (≈ 3.75 µM) | 4 µg/mL (≈ 1.87 µM) | 8 µg/mL (≈ 3.75 µM) | 32 µg/mL | 16 h | 2 µg/mL (≈ 0.937 µM) | 4 µg/mL (≈ 1.87 µM) | 16 µg/mL (≈ 7.5 µM) | 2 µg/mL (≈ 0.937 µM) | 8 µg/mL (≈ 3.75 µM) | 4 µg/mL (≈ 1.87 µM) | Toxic | 8 µg/mL | Toxic | Activity (Cell membrane [19]): Active; Activity (Cell membrane [20]): Active; Activity (Cell membrane [4]): 27%; Activity (Cell membrane [5]; DDE = dose-dependent effect): Dde; Activity (Acinetobacter baumannii [22]): Active; Activity (Staphylococcus aureus [23]): Active; Activity (Cell membrane [24]): Active; Activity (Staphylococcus aureus [25]): Active
4 | CC(C)[C@H](N)C(=O)N[C@H]1CCCCNC/C=C/CNCCCC[C@@H](C(=O)N[C@@H](Cc2ccccc2)C(=O)N[C@@H](Cc2ccccc2)C(=O)N[C@@H](CCCNC(=N)N)C(=O)N[C@@H](CCCCN)C(=O)N[C@@H](Cc2ccccc2)C(=O)N[C@@H](CCCCN)C(=O)N[C@@H](CCCCN)C(=O)N[C@@H](Cc2ccccc2)C(=O)N[C@H](C(N)=O)C(C)C)NC(=O)[C@H](CCCCN)NC(=O)[C@H](Cc2ccccc2)NC(=O)[C@H](CCCNC(=N)N)NC1=O (H-V[X1]RFK[X1]FFRKFKKFV-NH2; staple (E) 2-6) | 4 µg/mL (≈ 1.92 µM) | 2 µg/mL (≈ 0.959 µM) | 16 µg/mL (≈ 7.68 µM) | 8 µg/mL (≈ 3.84 µM) | 4 µg/mL (≈ 1.92 µM) | 16 µg/mL (≈ 7.68 µM) | > 128 µg/mL |  |  |  |  |  |  |  | Toxic | 128 µg/mL |  | Activity (HEK-293T [26]): Toxic
5 | CC(C)[C@H](N)C(=O)N[C@H]1CCCCNCc2ccccc2CNCCCC[C@@H](C(=O)N[C@@H](Cc2ccccc2)C(=O)N[C@@H](Cc2ccccc2)C(=O)N[C@@H](CCCNC(=N)N)C(=O)N[C@@H](CCCCN)C(=O)N[C@@H](Cc2ccccc2)C(=O)N[C@@H](CCCCN)C(=O)N[C@@H](CCCCN)C(=O)N[C@@H](Cc2ccccc2)C(=O)N[C@H](C(N)=O)C(C)C)NC(=O)[C@H](CCCCN)NC(=O)[C@H](Cc2ccccc2)NC(=O)[C@H](CCCNC(=N)N)NC1=O | 8 µg/mL (≈ 3.75 µM) | 4 µg/mL (≈ 1.87 µM) | 16 µg/mL (≈ 7.5 µM) | 16 µg/mL (≈ 7.5 µM) | 8 µg/mL (≈ 3.75 µM) | 16 µg/mL (≈ 7.5 µM) | > 128 µg/mL |  |  |  |  |  |  |  | Toxic | 128 µg/mL | Non-Toxic | 
6 | CC(C)[C@H](N)C(=O)N[C@@H](CCCCN)C(=O)N[C@@H](CCCNC(=N)N)C(=O)N[C@@H](Cc1ccccc1)C(=O)N[C@@H](CCCCN)C(=O)N[C@H]1CCCCNCC#CCNCCCC[C@@H](C(=O)N[C@@H](Cc2ccccc2)C(=O)N[C@@H](CCCCN)C(=O)N[C@@H](CCCCN)C(=O)N[C@@H](Cc2ccccc2)C(=O)N[C@H](C(N)=O)C(C)C)NC(=O)[C@H](CCCNC(=N)N)NC(=O)[C@H](Cc2ccccc2)NC(=O)[C@H](Cc2ccccc2)NC1=O | 4 µg/mL (≈ 1.92 µM) | 2 µg/mL (≈ 0.96 µM) | 2 µg/mL (≈ 0.96 µM) | 16 µg/mL (≈ 7.68 µM) | 2 µg/mL (≈ 0.96 µM) | 16 µg/mL (≈ 7.68 µM) | > 128 µg/mL |  |  |  |  |  |  |  | Toxic | 8 µg/mL |  | 
